Target: Endothelial lipase (EL) (Homo sapiens (Human), UniProt Q9Y5X9)
Assay: Endothelial lipase (EL) enzymatic assay with fluorescent substrate A10070 in DMPG vesicles
Type: biochemical
Settings: not given
Summary of the method: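 Substrate A10070 sits in sonicated DMPG vesicles at 0.11 mole fraction. Lipase and compound preincubated 30 min, 37° C, in HEPES pH 8.0 buffer with CaCl2.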

Chain of Endothelial lipase (EL) (Q9Y5X9 21-500): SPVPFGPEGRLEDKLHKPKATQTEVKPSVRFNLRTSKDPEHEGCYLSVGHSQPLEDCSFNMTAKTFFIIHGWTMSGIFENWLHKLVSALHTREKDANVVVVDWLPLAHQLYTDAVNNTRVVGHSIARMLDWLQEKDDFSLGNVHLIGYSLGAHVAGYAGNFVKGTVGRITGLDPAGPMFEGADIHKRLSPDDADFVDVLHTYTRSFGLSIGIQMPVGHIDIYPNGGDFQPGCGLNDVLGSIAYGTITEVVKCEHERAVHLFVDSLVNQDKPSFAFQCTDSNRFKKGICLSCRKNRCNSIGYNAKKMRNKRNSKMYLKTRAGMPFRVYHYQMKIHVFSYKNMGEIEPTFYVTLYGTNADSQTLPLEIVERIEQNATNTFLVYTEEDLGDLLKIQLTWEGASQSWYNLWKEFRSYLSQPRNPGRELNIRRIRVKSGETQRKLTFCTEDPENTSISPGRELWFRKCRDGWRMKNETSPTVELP

| SMILES | IC50 |
| --- | --- |
| O=C(CNC(=O)C(c1nc2cc(F)c(-c3ccc(NC(=O)NCc4ccccc4)cc3)cc2s1)S(=O)(=O)CCC(F)(F)F)NC1CC1 (centres unmarked) [Example 511, 2-(6-{4-[(benzyl-carbamoyl)amino]phenyl}-5-fluoro-1,3-benzothiazol-2-yl)-N-[(cyclopropyl-carbamoyl)methyl]-2-(3,3,3-trifluoropropane-sulfonyl)acetamide] | 1 nM |
| O=C(CNC(=O)C(c1nc2ccc(-c3ccc(F)nc3)cc2s1)S(=O)(=O)Cc1ccc(C(F)(F)F)cc1)NC1CC1 (centres unmarked) [Example 512, N-[(cyclopropyl-carbamoyl)methyl]-2-[6-(6-fluoropyridin-3-yl)-1,3-benzothiazol-2-yl]-2-{[4-(trifluoromethyl)phenyl]methanesulfonyl} acetamide] | 16 nM |
| O=C(CNC(=O)C(c1nc2ccc(-c3ccc(F)nc3)cc2s1)S(=O)(=O)Cc1ccc(OC(F)(F)F)cc1)NC1CC1 (centres unmarked) [Example 513, N-[(cyclopropyl-carbamoyl)methyl]-2-[6-(6-fluoropyridin-3-yl)-1,3-benzothiazol-2-yl]-2-{[4-(trifluoromethoxy)phenyl]methanesulfonyl} acetamide] | 20 nM |
| COCCS(=O)(=O)C(C(=O)NCC(=O)NC1CC1)c1nc2c(F)cc(-c3ccc(F)nc3)cc2s1 (centres unmarked) [Example 514, N-[(cyclopropyl-carbamoyl)methyl]-2-[4-fluoro-6-(6-fluoropyridin-3-yl)-1,3-benzothiazol-2-yl]-2-(2-methoxyethane-sulfonyl)acetamide] | 43 nM |
| O=C(CNC(=O)C(c1nc2ccc(-c3ccc(F)nc3)cc2s1)S(=O)(=O)Cc1ccc(F)cc1)NC1CC1 (centres unmarked) [Example 515, N-[(cyclopropyl-carbamoyl)methyl]-2-[(4-fluorophenyl)methanesulfonyl]-2-[6-(6-fluoropyridin-3-yl)-1,3-benzothiazol-2-yl]acetamide] | 48 nM |
| CC(C)CS(=O)(=O)C(C(=O)NCC(=O)NC1CC1)c1nc2ccc(-c3ccc(F)nc3)cc2s1 (centres unmarked) [Example 516, N-[(cyclopropyl-carbamoyl)methyl]-2-[6-(6-fluoropyridin-3-yl)-1,3-benzothiazol-2-yl]-2-(2-methylpropane-sulfonyl)acetamide] | 57 nM |
| O=C(CNC(=O)C(c1nc2ccc(-c3cncnc3)cc2s1)S(=O)(=O)Cc1ccc(F)cc1)NC1CC1 (centres unmarked) [Example 517, N-[(cyclopropyl-carbamoyl)methyl]-2-[(4-fluorophenyl)methanesulfonyl]-2-[6-(pyrimidin-5-yl)-1,3-benzothiazol-2-yl]acetamide] | 117 nM |
| COCCS(=O)(=O)C(C(=O)NCC(=O)NC1CC1)c1nc2cc(F)c(-c3ccc(NC(=O)OCc4ccccn4)cc3)cc2s1 (centres unmarked) [Example 519, pyridin-2-ylmethyl N-{4-[2-({[(cyclopropyl-carbamoyl)methyl]carbamoyl}(2-methoxyethane-sulfonyl)methyl)-5-fluoro-1,3-benzothiazol-6-yl]phenyl}carbamate] | 2 nM |
| O=C(CNC(=O)C(c1nc2cc(F)c(-c3ccc(NC(=O)OCc4ccccn4)cc3)cc2s1)S(=O)(=O)CCC(F)(F)F)NC1CC1 (centres unmarked) [Example 520, pyridin-2-ylmethyl N-{4-[2-({[(cyclopropyl-carbamoyl)methyl]carbamoyl}(3,3,3-trifluoropropane-sulfonyl)methyl)-5-fluoro-1,3-benzothiazol-6-yl]phenyl}carbamate] | 2 nM |
| N#Cc1cccc(COC(=O)Nc2ccc(-c3cc4sc(C(C(=O)NCC(=O)NC5CC5)S(=O)(=O)C5CC5)nc4cc3F)cc2)c1 (centres unmarked) [Example 521, (3-cyanophenyl) methyl N-(4-{2-[(cyclopropane-sulfonyl) ({[(cyclopropyl-carbamoyl)methyl]carbamoyl}methyl]-5-fluoro-1,3-benzothiazol-6-yl}phenyl) carbamate] | 3 nM |
| N#Cc1cccc(COC(=O)Nc2ccc(-c3cc4sc(C(C(=O)NCC(=O)NC5CC5)S(=O)(=O)CCC(F)(F)F)nc4cc3F)cc2)c1 (centres unmarked) [Example 522, (3-cyanophenyl) methyl N-{4-[2-({[(cyclopropyl-carbamoyl)methyl]carbamoyl}(3,3,3-trifluoropropane-sulfonyl)methyl)-5-fluoro-1,3-benzothiazol-6-yl]phenyl} carbamate] | 1 nM |
| O=C(CNC(=O)C(c1nc2cc(F)c(-c3ccc(NC(=O)OCc4nccs4)cc3)cc2s1)S(=O)(=O)CCC(F)(F)F)NC1CC1 (centres unmarked) [Example 523, 1,3-thiazol-2-ylmethyl N-{4-[2-({[(cyclopropyl-carbamoyl)methyl]carbamoyl}(3,3,3-trifluoropropane-sulfonyl)methyl)-5-fluoro-1,3-benzothiazol-6-yl]phenyl} carbamate] | 6 nM |
| COCCS(=O)(=O)C(C(=O)NCC(=O)NC1CC1)c1nc2cc(F)c(-c3ccc(NC(=O)OCc4nccs4)cc3)cc2s1 (centres unmarked) [Example 524, 1,3-thiazol-2-ylmethyl N-{4-[2-({[(cyclopropyl-carbamoyl)methyl]carbamoyl}(2-methoxyethane-sulfonyl)methyl)-5-fluoro-1,3-benzothiazol-6-yl]phenyl} carbamate] | 13 nM |
| COCCS(=O)(=O)C(C(=O)NCC(=O)NC1CC1)c1nc2cc(F)c(-c3ccc(NC(=O)OCC(F)(F)F)cc3)cc2s1 (centres unmarked) [Example 526, 2,2,2-trifluoroethyl N-{4-[2-({[(cyclopropyl-carbamoyl)methyl]carbamoyl}(2-methoxyethane-sulfonyl)methyl)-5-fluoro-1,3-benzothiazol-6-yl]phenyl} carbamate] | 1 nM |
| CS(=O)(=O)C(C(=O)NCC(=O)NC1CC1)c1nc2cc(F)c(-c3ccc(NC(=O)OCC4CC4)cc3)cc2s1 (centres unmarked) [Example 527, cyclopropylmethyl N-{4-[2-({[(cyclopropyl-carbamoyl)methyl]carbamoyl}) (methanesulfonyl)methyl)-5-fluoro-1,3-benzothiazol-6-yl]phenyl} carbamate] | 9 nM |
| CC(C)S(=O)(=O)C(C(=O)NCC(=O)NC1CC1)c1nc2cc(F)c(-c3ccc(NC(=O)OCC4CC4)cc3)cc2s1 (centres unmarked) [Example 528] | 1 nM |
| O=C(CNC(=O)C(c1nc2cc(F)c(-c3ccc(NC(=O)OCC(F)(F)F)cc3)cc2s1)S(=O)(=O)CCC(F)(F)F)NC1CC1 (centres unmarked) [Example 529, 2,2,2-trifluoroethyl N-{4-[2-({[(cyclopropyl-carbamoyl)methyl]carbamoyl}(3,3,3-trifluoropropane-sulfonyl)methyl)-5-fluoro-1,3-benzothiazol-6-yl]phenyl} carbamate] | 2 nM |
| O=C(CNC(=O)C(c1nc2cc(F)c(-c3ccc(NC(=O)OCC4CC4)cc3)cc2s1)S(=O)(=O)C1CC1)NC1CC1 (centres unmarked) [Example 530, cyclopropylmethyl N-(4-{2-[(cyclopropane-sulfonyl) ({[(cyclopropyl-carbamoyl)methyl]carbamoyl})methyl]-5-fluoro-1,3-benzothiazol-6-yl}phenyl) carbamate] | 3 nM |
| O=C(CNC(=O)C(c1nc2cc(F)c(-c3ccc(NC(=O)OCC4CC4)cc3)cc2s1)S(=O)(=O)CCC(F)(F)F)NC1CC1 (centres unmarked) [Example 531, cyclopropylmethyl N-{4-[2-({[(cyclopropyl-carbamoyl)methyl]carbamoyl}(3,3,3-trifluoropropane-sulfonyl)methyl)-5-fluoro-1,3-benzothiazol-6-yl]phenyl} carbamate] | 1 nM |
| COCCOC(=O)Nc1ccc(-c2cc3sc(C(C(=O)NCC(=O)NC4CC4)S(C)(=O)=O)nc3cc2F)cc1 (centres unmarked) [Example 533, 2-methoxyethyl N-{4-[2-({[(cyclopropyl-carbamoyl)methyl]carbamoyl} (methanesulfonyl)methyl)-5-fluoro-1,3-benzothiazol-6-yl]phenyl} carbamate] | 3 nM |
| COCCOC(=O)Nc1ccc(-c2cc3sc(C(C(=O)NCC(=O)NC4CC4)S(=O)(=O)CCC(F)(F)F)nc3cc2F)cc1 (centres unmarked) [Example 534, 2-methoxyethyl N-{4-[2-({[(cyclopropyl-carbamoyl)methyl]carbamoyl}(3,3,3-trifluoropropane-sulfonyl)methyl)-5-fluoro-1,3-benzothiazol-6-yl]phenyl} carbamate] | 2 nM |
| COCCOC(=O)Nc1ccc(-c2cc3sc(C(C(=O)NCC(=O)NC4CC4)S(=O)(=O)CCOC)nc3cc2F)cc1 (centres unmarked) [Example 535, 2-methoxyethyl N-{4-[2-({[(cyclopropyl-carbamoyl)methyl]carbamoyl}(2-methoxyethane-sulfonyl)methyl)-5-fluoro-1,3-benzothiazol-6-yl]phenyl} carbamate] | 4 nM |
| COCCOC(=O)Nc1ccc(-c2cc3sc(C(C(=O)NCC(=O)NC4CC4)S(=O)(=O)C4CC4)nc3cc2F)cc1 (centres unmarked) [Example 536, 2-methoxyethyl N-(4-{2-[(cyclopropane-sulfonyl) ({[(cyclopropyl-carbamoyl)methyl]carbamoyl})methyl]-5-fluoro-1,3-benzothiazol-6-yl}phenyl) carbamate] | 2 nM |
| COCCS(=O)(=O)C(C(=O)NCC(=O)NC1CC1)c1nc2cc(F)c(-c3ccccc3NC(=O)OC)cc2s1 (centres unmarked) [Example 537, methyl N-{2-[2-({[(cyclopropyl-carbamoyl)methyl]carbamoyl}(2-methoxyethane-sulfonyl)methyl)-5-fluoro-1,3-benzothiazol-6-yl]phenyl} carbamate] | 92 nM |

Same assay, conditions: EL from conditioned media of HT-1080 cells; 30 min preincubation at 37° C.

| SMILES | IC50 |
| --- | --- |
| COCCS(=O)(=O)C(C(=O)NCC(=O)NC1CC1)c1nc2cc(F)c(-c3ccc(NC(=O)OCC4CC4)cc3)cc2s1 (centres unmarked) [Example 525, Cyclopropylmethyl N-{4-[2-({[(cyclopropylcarbamoyl)methyl]carbamoyl}(2-methoxyethanesulfonyl)methyl)-5-fluoro-1,3-benzothiazol-6-yl]phenyl}carbamate] | 0.5 nM |
| COC(=O)Nc1ccccc1-c1cc2sc(C(C(=O)NCC(=O)NC3CC3)S(C)(=O)=O)nc2cc1F (centres unmarked) [Example 532, Methyl N-{2-[2({[(cyclopropylcarbamoyl)methyl]carbamoyl}(methanesulfonyl)methyl)-5-fluoro-1,3-benzothiazol-6-yl]phenyl}carbamate] | 110 nM |

— patent publication US10173991B2, “Sulfone amide linked benzothiazole inhibitors of endothelial lipase” (BRISTOL-MYERS SQUIBB COMPANY, priority 2014, dated 2019)
